The target of this experiment is Factor IXa (Homo sapiens (Human), UniProt P00740). In words: Determination of inhibitory activity against Factor IXa (cleavage of fluorescent peptide CH3SO2-D-CHG-Gly-Arg-AFC). It is filed as biochemical. The protocol:
Determination of Inhibitory Activity Against Factor IXa
Formation of a clot to stem bleeding at a site of blood vessel injury involves the coordinated activity of a group of plasma proteins that initiate and propagate fibrin formation and subsequently protect fibrin from premature degradation. Factor IX is a key component of the plasma system that forms a fibrin clot at a site of vascular injury. The activity of Factor IXa is measured by monitoring the cleavage of the fluorescent peptide, CH3SO2-D-CHG-Gly-Arg-AFC.AcOH (“CHG” is cyclohexyl-glycine and “AFC” is trifluoro aminomethyl coumarin). Factor IXa cleaves the amide bond between Arg and AFC, thereby releasing the AFC fluorophore. The free AFC can be detected with a fluorescence detector at an excitation wavelength of 405 nm and emission wavelength of 510 nm.

pIC50: −log10 of the molar value. Read-outs that look alike come from different tables or passages of the source.

Sequence of Factor IXa (P00740 227-461): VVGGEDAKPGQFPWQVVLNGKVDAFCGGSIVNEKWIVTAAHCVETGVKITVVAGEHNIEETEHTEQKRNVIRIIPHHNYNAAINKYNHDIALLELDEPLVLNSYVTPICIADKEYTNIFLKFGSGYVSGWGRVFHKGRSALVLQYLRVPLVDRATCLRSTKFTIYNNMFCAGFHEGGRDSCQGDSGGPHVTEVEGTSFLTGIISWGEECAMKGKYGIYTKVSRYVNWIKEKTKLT
Sequence of Factor IXa (P00740 47-191 partner): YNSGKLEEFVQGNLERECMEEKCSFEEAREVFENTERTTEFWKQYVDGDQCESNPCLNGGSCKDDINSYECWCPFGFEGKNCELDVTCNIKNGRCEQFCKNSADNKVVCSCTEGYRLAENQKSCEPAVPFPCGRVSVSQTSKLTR

Regarding `Cc1ncn(-c2cc(Cl)c(C(=O)NC[C@@H](c3cccnc3)c3nc4c(F)ccc(C)c4c(=O)n3C)c(Cl)c2)n1` [Example 110], the pIC50 (usually the IC50 on a negative log10 scale, so that one unit is a factor of ten) (read-out: hFIXa IC50) is 8.05. Regarding `Cc1ncn(-c2cc(Cl)c(C(=O)NC[C@@H](c3cccc(F)c3)c3cc(C)c4[nH]c(C)nc4c3)c(Cl)c2)n1` [Example 82], the negative-log IC50 (pIC50) (read-out: hFIXa IC50) was 7.12. As to `Cc1ccc2c(c1)nnn2[C@H](CNC(=O)c1c(Cl)cc(-n2cnnc2)cc1Cl)c1ccccc1` [Example 90, (S)-2,6-dichloro-N-(2-(5-methyl-1H-benzo[d][1,2,3]triazol-1-yl)-2-phenylethyl)-4-(4H-1,2,4-triazol-4-yl)benzamide], the pIC50 (read-out: FIXa IC50) was 7.42.

As for `Cc1cc2nc(C(CNC(=O)c3ccc(-n4cnnc4)cc3Cl)c3cccc(F)c3)oc2cc1C` (centres unmarked) [Example 68], where the note is “read-out: hFIXa IC50”, the pIC50 is 7.14. For `Cc1cc2nc(C(CNC(=O)c3c(Cl)cc(-c4cncc(C(C)(C)O)c4)cc3Cl)c3ccccc3)[nH]c2cc1C` (centres unmarked) [Example 22], under “read-out: hFIXa IC50”, the pIC50 is 7.35.

Take `Cc1cc2nc(C(CNC(=O)c3c(Cl)cc(-n4cnnc4)cc3Cl)c3ccccc3)[nH]c2cc1C` (centres unmarked) [Example 7]: the pIC50 (read-out: hFIXa IC50) is 8.44.

In the case of `COc1cc2nc([C@@H](CNC(=O)c3c(Cl)cc(-n4cnc(C)n4)cc3Cl)c3cnc(N(C)C)nc3)[nH]c2cc1Cl` [Example 57], the negative logarithm of the IC50 (pIC50) (read-out: hFIXa IC50) is 8.06.

For `Cc1ncn(-c2cc(Cl)c(C(=O)NCC(c3ccccc3)c3nc4cc(C)c(C)cc4[nH]3)c(Cl)c2)n1` (centres unmarked) [Example 6], the pIC50 (read-out: hFIXa IC50) was 7.68. `Cc1ccc(F)c2nc([C@@H](CNC(=O)c3ccc(-c4ccnnc4)cc3Cl)c3cccc(F)c3)[nH]c(=O)c12` [Example 106]: the pIC50 (read-out: hFIXa IC50) is 8.07. As to `Cc1cc2nc(C(CNC(=O)c3c(F)cc(-n4cnnc4)cc3Cl)c3ccccc3)[nH]c2cc1C` (centres unmarked) [Example 10], for the setting “read-out: hFIXa IC50”, the pIC50 is 7.82. Still for that read-out and setting: the figure for `Cc1ncn(-c2cc(Cl)c(C(=O)NC[C@@H](c3cccc(F)c3)c3ccc4c(C)ccc(F)c4n3)c(Cl)c2)n1` [Example 113] is 7.98. For the molecule `Cc1ncn(-c2cc(Cl)c(C(=O)NCC(c3ccc(=O)[nH]c3)c3nc4ccc(Cl)cc4[nH]3)c(Cl)c2)n1` (racemic) [Example 39, 2,6-Dichloro-N-(2-(6-chloro-1H-benzo[d]imidazol-2-yl)-2-(6-oxo-1,6-dihydropyridin-3-yl)ethyl)-4-(3-methyl-1H-1,2,4-triazol-1-yl)benzamide 2,2,2-trifluoroacetate], the pIC50 (read-out: FIXa IC50) was 8.62. The same measure, in the same setting: in the case of `Cc1ccc2nn([C@@H](CNC(=O)c3ccc(-n4cnnc4)cc3Cl)c3ccccc3)cc2c1` [Example 84, (R)-2-chloro-N-(2-(5-methyl-2H-indazol-2-yl)-2-phenylethyl)-4-(4H-1,2,4-triazol-4-yl)benzamide] it was 6.62. With `Cc1ncn(-c2ccc(C(=O)NCC(c3ccc(C(F)(F)F)nc3)c3nc4cc(C)c(C)cc4[nH]3)c(Cl)c2)n1` (centres unmarked) [Example 55], the pIC50 (read-out: hFIXa IC50) was 6.37. On the same count and under the same terms, in the case of `CCOC(=O)c1cc(-c2cc(Cl)c(C(=O)NCC(c3ccccc3)c3nc4cc(C)c(C)cc4[nH]3)c(Cl)c2)ccn1` (centres unmarked) [Example 19] it was 6.46. As for `Cc1ccc2c(cnn2[C@H](CNC(=O)c2c(Cl)cc(-n3cc(CCO)nn3)cc2Cl)c2cnco2)c1` [Example 86, (R)-2,6-dichloro-4-(4-(2-hydroxyethyl)-1H-1,2,3-triazol-1-yl)-N-(2-(5-methyl-1H-indazol-1-yl)-2-(oxazol-5-yl)ethyl)benzamide], the pIC50 (read-out: FIXa IC50) is 8.15.

As to `Cc1ncn(-c2cc(Cl)c(C(=O)NC[C@@H](c3ccc(F)cc3)c3nc4c(F)ccc(C)c4c(=O)[nH]3)c(Cl)c2)n1` [Example 93, (R)-2,6-dichloro-N-(2-(8-fluoro-5-methyl-4-oxo-3,4-dihydroquinazolin-2-yl)-2-(4-fluorophenyl)ethyl)-4-(3-methyl-1H-1,2,4-triazol-1-yl)benzamide], the pIC50 (read-out: FIXa IC50) is 8.34.
